Source: ChEMBL document CHEMBL1909046, “DrugMatrix in vitro pharmacology data”

What was measured:
[1] = biological target: T1, C-X-C chemokine receptor type 1 (Homo sapiens, UniProt P25024); note: in other assays of this panel Not Active means under 50% inhibition at 10 µM
T1 sequence (P25024 whole entry): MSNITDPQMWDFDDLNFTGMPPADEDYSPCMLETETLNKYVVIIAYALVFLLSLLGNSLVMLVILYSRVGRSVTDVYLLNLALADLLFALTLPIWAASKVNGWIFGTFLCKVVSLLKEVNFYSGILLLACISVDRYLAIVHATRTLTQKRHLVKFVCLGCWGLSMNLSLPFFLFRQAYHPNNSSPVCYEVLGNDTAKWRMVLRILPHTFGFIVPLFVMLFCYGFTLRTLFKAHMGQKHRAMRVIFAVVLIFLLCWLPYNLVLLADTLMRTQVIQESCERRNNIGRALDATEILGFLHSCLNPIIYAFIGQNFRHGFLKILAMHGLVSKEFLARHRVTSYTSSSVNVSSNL

[2] = DRUGMATRIX: Phosphodiesterase PDE3 enzyme inhibition (substrate: [3H]cAMP + cAMP); format: tissue-based, Homo sapiens; conditions: platelet; Not Active = under 50% inhibition at 10 µM
[3] = biological target: Melanocortin receptor 3 (Homo sapiens, UniProt P41968); format: cell membranes, HEK293, Membrane; conditions: hek293; note: in other assays of this panel Not Active means under 50% inhibition at 10 µM
[4] = DRUGMATRIX: Leukotriene, BLT (LTB4) radioligand binding (ligand: [3H]LTB4); format: cell membranes, Membrane; conditions: u-937; Not Active = under 50% inhibition at 10 µM
[5] = biological target: Mitogen-activated protein kinase 1 (Homo sapiens, UniProt P28482); assay: DRUGMATRIX: Protein Serine/Threonine Kinase, ERK2 enzyme inhibition (substrate: Myelin Basic Protein); set-up: species or system Escherichia coli; conditions: Not Active = under 50% inhibition at 10 µM
[6] = biological target: T2, 5-hydroxytryptamine receptor 2C (Homo sapiens, UniProt P28335); assay: DRUGMATRIX: Serotonin (5-Hydroxytryptamine) 5-HT2C radioligand binding (ligand: [3H] Mesulergine); format: cell membranes, CHO-K1, Membrane; conditions: cho-k1; Not Active = under 50% inhibition at 10 µM
T2 sequence (P28335 whole entry): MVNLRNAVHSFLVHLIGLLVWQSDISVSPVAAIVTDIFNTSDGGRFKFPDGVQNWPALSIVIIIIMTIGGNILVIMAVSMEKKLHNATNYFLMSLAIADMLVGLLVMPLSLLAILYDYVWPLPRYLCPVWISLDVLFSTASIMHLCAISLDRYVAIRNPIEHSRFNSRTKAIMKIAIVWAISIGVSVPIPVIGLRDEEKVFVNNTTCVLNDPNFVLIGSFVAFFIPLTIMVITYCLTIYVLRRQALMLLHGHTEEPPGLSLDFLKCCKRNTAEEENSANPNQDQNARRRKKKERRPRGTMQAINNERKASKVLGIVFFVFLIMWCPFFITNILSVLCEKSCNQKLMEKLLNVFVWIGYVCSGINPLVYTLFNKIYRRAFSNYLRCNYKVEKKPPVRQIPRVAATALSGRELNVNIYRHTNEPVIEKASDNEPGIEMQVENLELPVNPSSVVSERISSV

Mitogen-activated protein kinase 1, sequence (P28482 whole entry): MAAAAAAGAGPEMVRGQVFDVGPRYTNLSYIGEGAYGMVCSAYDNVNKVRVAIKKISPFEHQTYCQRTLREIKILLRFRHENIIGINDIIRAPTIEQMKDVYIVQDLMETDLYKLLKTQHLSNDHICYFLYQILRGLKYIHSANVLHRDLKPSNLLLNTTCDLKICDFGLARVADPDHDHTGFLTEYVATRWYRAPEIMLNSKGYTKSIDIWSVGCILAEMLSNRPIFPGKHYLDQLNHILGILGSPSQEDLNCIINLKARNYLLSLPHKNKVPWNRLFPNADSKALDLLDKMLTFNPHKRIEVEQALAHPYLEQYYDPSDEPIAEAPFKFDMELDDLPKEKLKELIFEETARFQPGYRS
Melanocortin receptor 3, sequence (P41968 whole entry): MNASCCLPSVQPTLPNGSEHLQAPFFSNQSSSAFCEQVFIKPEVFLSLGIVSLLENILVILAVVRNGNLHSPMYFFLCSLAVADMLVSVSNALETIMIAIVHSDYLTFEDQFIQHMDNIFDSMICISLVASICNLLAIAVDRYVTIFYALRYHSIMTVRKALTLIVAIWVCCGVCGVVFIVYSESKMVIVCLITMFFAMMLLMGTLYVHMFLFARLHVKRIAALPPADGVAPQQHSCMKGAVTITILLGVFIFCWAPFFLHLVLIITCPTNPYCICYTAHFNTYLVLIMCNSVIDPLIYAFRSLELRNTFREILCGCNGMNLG

## Nc1nc2nc[nH]c2c(=S)[nH]1 [THIOGUANINE]
[1]
  IC50: Not Active
[2]
  IC50: Not Active
  Ki: Not Active
[3]
  IC50: Not Active
[4]
  IC50: Not Active
  Ki: Not Active
[5]
  IC50: Not Active
[6]
  IC50: Not Active

## Cc1cccc(N(C)C(=S)Oc2ccc3ccccc3c2)c1 [TOLNAFTATE]
[1]
  IC50: Not Active
[2]
  IC50: Not Active
  Ki: Not Active
[3]
  IC50: Not Active
[4]
  IC50: Not Active
  Ki: Not Active
[5]
  IC50: Not Active
[6]
  IC50: Not Active

## NC[C@H]1CC[C@H](C(=O)O)CC1 [TRANEXAMIC ACID]
[1]
  IC50: Not Active
[2]
  IC50: Not Active
  Ki: Not Active
[3]
  IC50: Not Active
[4]
  IC50: Not Active
  Ki: Not Active
[5]
  IC50: Not Active
[6]
  IC50: Not Active

## CC1(C)O[C@@H]2C[C@H]3[C@@H]4CCC5=CC(=O)C=C[C@]5(C)[C@@]4(F)[C@@H](O)C[C@]3(C)[C@]2(C(=O)CO)O1 [TRIAMCINOLONE ACETONIDE]
[1]
  IC50: Not Active
[2]
  IC50: Not Active
  Ki: Not Active
[3]
  IC50: Not Active
[4]
  IC50: Not Active
  Ki: Not Active
[5]
  IC50: Not Active
[6]
  IC50: Not Active

## NS(=O)(=O)c1cc2c(cc1Cl)NC(C(Cl)Cl)NS2(=O)=O (configuration not stated) [TRICHLORMETHIAZIDE]
[1]
  IC50: Not Active
[2]
  IC50: Not Active
  Ki: Not Active
[3]
  IC50: Not Active
[4]
  IC50: Not Active
  Ki: Not Active
[5]
  IC50: Not Active
[6]
  IC50: Not Active

## Cc1c(C)c2c(c(C)c1O)CCC(C)(COc1ccc(CC3SC(=O)NC3=O)cc1)O2 (configuration not stated) [TROGLITAZONE]
[1]
  IC50: Not Active
[2]
  IC50: Not Active
  Ki: Not Active
[3]
  IC50: Not Active
[4]
  IC50: Not Active
  Ki: Not Active
[5]; read-out: IC50
  IC50: 1240 nM
[6]
  IC50: Not Active

## N[C@@H]1[C@H]2CN(c3nc4c(cc3F)c(=O)c(C(=O)O)cn4-c3ccc(F)cc3F)C[C@@H]12 [TROVAFLOXACIN]
[1]
  IC50: Not Active
[2]
  IC50: Not Active
  Ki: Not Active
[3]
  IC50: Not Active
[4]
  IC50: Not Active
  Ki: Not Active
[5]
  IC50: Not Active
[6]
  IC50: Not Active

## N#CC(C#N)=Cc1ccc(O)c(O)c1 [TYRPHOSTIN 23]
[1]
  IC50: Not Active
[2]
  IC50: Not Active
  Ki: Not Active
[3]
  IC50: Not Active
[4]
  IC50: Not Active
  Ki: Not Active
[5]
  IC50: Not Active
[6]
  IC50: Not Active

## CC[C@]1(O)C[C@H]2CN(CCc3c([nH]c4ccccc34)[C@@](C(=O)OC)(c3cc4c(cc3OC)N(C=O)[C@H]3[C@@](O)(C(=O)OC)[C@H](OC(C)=O)[C@]5(CC)C=CCN6CC[C@]43[C@@H]65)C2)C1 [VINCRISTINE]
[1]
  IC50: Not Active
[2]
  IC50: Not Active
  Ki: Not Active
[3]
  IC50: Not Active
[4]
  IC50: Not Active
  Ki: Not Active
[5]
  IC50: Not Active
[6]
  IC50: Not Active

## CCCOc1ccccc1-c1nc2nn[nH]c2c(=O)[nH]1 [ZAPRINAST]
[1]
  IC50: Not Active
[2]
  IC50: Not Active
  Ki: Not Active
[3]
  IC50: Not Active
[4]
  IC50: Not Active
  Ki: Not Active
[5]
  IC50: Not Active
[6]
  IC50: Not Active

## SODIUM NITROPRUSSIDE
[1]
  IC50: Not Active
  Ki: Not Active
[2]
  IC50: Not Active
  Ki: Not Active
[3]
  IC50: Not Active
  Ki: Not Active
[4]
  IC50: Not Active
  Ki: Not Active
[5]
  IC50: Not Active
  Ki: Not Active
[6]
  IC50: Not Active
  Ki: Not Active
